Results reported in patent publication US20240246905A1 (University of Leicester, priority 2021, published 2024).
In brackets after ≈: the same amount, converted by molar mass. Read-outs that look alike come from different tables or passages of the source.

Experiments:
[1] = test system: MRSA 252; assay: MIC, broth micro-dilution; assay type: cell-based, Staphylococcus aureus; settings: Staphylococcus aureus, read-out: MIC
Procedure: (§1) E. coli DH5α, P. aeruginosa PA01 and the 53 S. aureus strains were recovered from frozen (−80° C.) glycerol (15% v/v) stocks on Lysogeny agar (LA)—Gram negative and trypticase soy agar (TSA)—plates at 37° C. for 24 hours. Single colonies were placed in either 3 mL Lysogeny broth (LB)—Gram negative or trypticase soy broth (TSB)—Gram positive and incubated at 37° C., 250 rpm for 18 hours.
(§2) Antibiotic MIC's were determined by a broth micro-dilution method according to Clinical Standard Laboratory Institute (CSLI) Guidelines (2017). Briefly, 96-well microplates, each containing 195 μL of the 1:2 dilution antibiotic in TSB, were inoculated with 5 μL of overnight cultured bacteria, diluted to give a starting bacterial concentration of 5×10^5 CFU/mL. The optical density of each well inoculated was recorded every 12 minutes over an 18 hour period at 37° C. The data from this was plotted in OriginPro8 (OriginLab) and sigmoidal curves fitted using the dose response function. Fitted values for each curve were used to calculate the MIC.

[2] = test system: MSSA 476; assay: MIC, broth micro-dilution; assay type: cell-based, Staphylococcus aureus
Procedure: as §1, §2

[3] = test system: MRSA 252; assay: Disc diffusion (Kirby-Bauer), zone of inhibition; assay type: cell-based, Staphylococcus aureus; settings: Staphylococcus aureus, 500 μg/mL, '/' = no zone, read-out: Zone of inhibition
Procedure: as §1
(§3) The antibiotic activity was determined using a Kirby-Bauer method according to Clinical Standard Laboratory Institute (CSLI) Guidelines (2017). Briefly, 180 μL of a 1 in 200 dilution (in LB or TSB) of overnight cultures of selected Gram negative and Gram positive bacteria were applied to an agar plate containing the solid growth medium, Mueller-Hinton agar (MHA). Sterile discs, inoculated with 50 μL of antibiotic, were first added to the agar plate before the plates were incubated for 24 hours at 37° C. Following incubation, the zone of inhibition (if it existed) was recorded.

[4] = test system: MSSA 476; assay: Disc diffusion (Kirby-Bauer), zone of inhibition; assay type: cell-based, Staphylococcus aureus; settings: 500 μg/mL, '/' = no zone; for zone of inhibition at 500 µg/mL: Staphylococcus aureus, read-out: Zone of inhibition
Procedure: as §1, §3

[5] = test system: Staphylococcus aureus 15981; assay: Disc diffusion (Kirby-Bauer), zone of inhibition; assay type: cell-based; settings: Staphylococcus aureus 15981, 500 μg/mL, '/' = no zone; for zone of inhibition at 500 µg/mL: read-out: Zone of inhibition
Procedure: as §1, §3

[6] = test system: Pseudomonas aeruginosa PA01; assay: Disc diffusion (Kirby-Bauer), zone of inhibition; assay type: cell-based; settings: 500 μg/mL, '/' = no zone
Procedure: as §1, §3

[7] = test system: MRSA 252, MSSA 476, S. aureus 15981, P. aeruginosa PA01 and E. coli DH5α; assay: Disc diffusion primary screening, five strains (statements in words); assay type: cell-based; settings: 500 μg/mL
Procedure: As such, the minimum inhibition concentration (MICs) of biologically active compounds were further assessed using the broth dilution method against the S. aureus strains; MRSA 252 and MSSA 476 (Table 1). The results of both assays enabled key structural elements and functional groups required for the compounds to retain their antibiotic activity to be identified.
as §3

[8] = test system: Escherichia coli DH5α; assay: Disc diffusion (Kirby-Bauer), zone of inhibition; assay type: cell-based; settings: Escherichia coli DH5α; 500 μg/mL; '/' = no zone; read-out: Zone of inhibition
Procedure: as §1, §3

[9] = test system: C. albicans ATCC 90028; assay: Anti-fungal MIC (CO-ADD); assay type: cell-based; settings: Candida albicans, ATCC90028, read-out: MIC
Procedure: (§4) Fungal strains were cultured for 3 days on Yeast Extract-Peptone Dextrose (YPD) agar at 30° C. A yeast suspension of 1×10^6 to 5×10^6 CFU/mL (as determined by OD530) was prepared from five colonies. […] All plates were covered and incubated at 35° C. for 36 hours without shaking. […] The absorbance was measured using a Biotek Multiflo Synergy HTX plate reader. In both cases, the percentage of growth inhibition was calculated for each well, using the negative control (media only) and positive control (fungi without inhibitors) on the same plate. […] Due to a higher variance in growth and inhibition, a lower threshold was applied to the data for C. neoformans. In addition, the maximal percentage of growth inhibition is reported as DMax, indicating any compounds with marginal activity.

[10] = test system: C. deuterogattii ATCC 32609; assay: Anti-fungal MIC (CO-ADD); assay type: cell-based; settings: read-out: MIC
Procedure: as §4

[11] = test system: C. glabrata ATCC 90030; assay: Anti-fungal MIC (CO-ADD); assay type: cell-based; settings: Nakaseomyces glabratus, ATCC90030, read-out: MIC
Procedure: as §4

[12] = test system: C. neoformans H99; ATCC 208821; assay: Anti-fungal MIC (CO-ADD); assay type: cell-based; settings: Cryptococcus neoformans, ATCC208821, read-out: MIC
Procedure: as §4

[13] = test system: C. tropicalis ATCC 450; assay: Anti-fungal MIC (CO-ADD); assay type: cell-based; settings: Candida tropicalis, ATCC450, read-out: MIC
Procedure: as §4

[14] = test system: C. tropicalis ATCC 750; assay: Anti-fungal MIC (CO-ADD); assay type: cell-based; settings: Candida tropicalis, ATCC750, read-out: MIC
Procedure: as §4

[15] = Staphylococcus aureus, MSSA, read-out: MIC

| SMILES | MIC [1] | MIC [2, 15] | zone of inhibition at 500 µg/mL [3] | zone of inhibition at 500 µg/mL [4] | zone of inhibition at 500 µg/mL [5] | zone of inhibition at 500 µg/mL [6] | other results |
| --- | --- | --- | --- | --- | --- | --- | --- |
| [C-]#[N+]C=Cc1cc(OC)ccc1OC (mixture of isomers) [Compound 18, (E/Z)-2-(Isocyanovinyl)-1,4-dimethoxybenzene] | 117 mg/L | 210 mg/L | 14 mm | 26 mm | 20 mm | – | – |
| [C-]#[N+]/C=C/c1ccccc1O (single isomer, unassigned) [Compound 11, 2-(2-isocyanovinyl)phenol] | 250 mg/L (≈ 1720 µM) | 350 mg/L (≈ 2410 µM) | 18 mm | 20 mm | 14 mm | 12 mm | – |
| [C-]#[N+]CCc1ccc(O)cc1 [Compound 4, 4-(2-Isocyanoethyl)phenol] | – | – | – | – | – | – | antibiotic activity in disc diffusion assays (in words) [7]: complete loss of activity against all five strains |
| [C-]#[N+]c1ccc(O)cc1 [Compound 5, 4-Isocyanophenol] | 26 mg/L (≈ 218 µM) | 23 mg/L (≈ 193 µM) | 26 mm | 30 mm | 16 mm | 26 mm | zone of inhibition at 500 µg/mL [8]: 18 mm |
| [C-]#[N+]C=Cc1cccc(O)c1 [Compound 10, 3-(2-Isocyanovinyl)phenol] | 137 mg/L (≈ 944 µM) | 300 mg/L (≈ 2070 µM) | 20 mm | 16 mm | 18 mm | – | – |
| [C-]#[N+]/C=C/c1cc(OC)ccc1O [Compound 12, (E)-2-(2-Isocyanovinyl)-4-methoxyphenol] | 123 mg/L (≈ 702 µM) | 187 mg/L (≈ 1070 µM) | 16 mm | 14 mm | 16 mm | – | – |
| [C-]#[N+]C=Cc1ccc(O)cc1Br [Compound 15, 3-Bromo-4-(2-isocyanovinyl)phenol] | 185 mg/L (≈ 826 µM) | 200 mg/L (≈ 893 µM) | 20 mm | 22 mm | 24 mm | – | MIC [9]: 8 mg/L; MIC [10]: 4 mg/L; MIC [11]: 32 mg/L; MIC [12]: 8 mg/L; MIC [13]: 4 mg/L; MIC [14]: 16 mg/L |
| [C-]#[N+]C=Cc1ccc(O)c(O)c1 [Compound 16, 4-(2-Isocyanovinyl)benzene-1,2-diol] | 116 mg/L (≈ 720 µM) | 400 mg/L (≈ 2480 µM) | 22 mm | 22 mm | 24 mm | 18 mm | – |
| [C-]#[N+]C=Cc1cc(Br)c(O)c(Br)c1 [Compound 17, 2,6-Dibromo-4-(2-isocyanovinyl)phenol] | 157 mg/L (≈ 518 µM) | 176 mg/L (≈ 581 µM) | 18 mm | 18 mm | 16 mm | – | – |
| [C-]#[N+]C=Cc1ccc(NC(=O)OC(C)(C)C)cc1 [Compound 23, Tert-butyl(4-(isocyanovinyl)phenyl)carbamate] | 35 mg/L (≈ 143 µM) | 164 mg/L (≈ 671 µM) | 18 mm | 20 mm | 14 mm | 14 mm | zone of inhibition at 500 µg/mL [8]: 14 mm |
| [C-]#[N+]C=C(C)c1ccc(NS(C)(=O)=O)cc1 [Compound 24, N-(4-(1-Isocyanoprop-1-en-2-yl)phenyl)methanesulfonamie] | 152 mg/L (≈ 643 µM) | 291 mg/L (≈ 1230 µM) | 16 mm | 22 mm | 18 mm | – | zone of inhibition at 500 µg/mL [8]: 14 mm |
| [C-]#[N+]C=Cc1cn(CC)c2ccccc12 [Compound 28] | 56 mg/L (≈ 285 µM) | 144 mg/L (≈ 734 µM) | 26 mm | 22 mm | 22 mm | 20 mm | – |
| [C-]#[N+]/C=C/c1cn(C(C)C)c2ccccc12 [Compound 29] | 63 mg/L (≈ 300 µM) | 90 mg/L (≈ 428 µM) | 22 mm | 16 mm | 16 mm | 12 mm | – |
| [C-]#[N+]C=Cc1c[nH]c2cccc(Br)c12 [Compound 30, 4-Bromo-3-(2-isocyanovinyl)-1H-indole] | 214 mg/L (≈ 866 µM) | 350 mg/L (≈ 1420 µM) | 14 mm | 12 mm | 12 mm | – | – |
| [C-]#[N+]C=Cc1c[nH]c2cccc(Br)c12 [Compound 31, 4-Bromo-3-(2-isocyanovinyl)-1H-indole] | – | – | – | – | – | – | MIC [2]: 361 mg/L (≈ 1460 µM); Zone of inhibition [4]: 12 mm; Zone of inhibition [5]: 12 mm |
| [C-]#[N+]/C=C/c1cc(/C=C/c2ccccc2)ccc1O [Compound 37] | 105 mg/L (≈ 425 µM) | 120 mg/L (≈ 485 µM) | 22 mm | 24 mm | 22 mm | – | antibiotic activity in disc diffusion assays (in words) [7]: retained antibiotic activity |
| [C-]#[N+]/C=C/c1ccc(NC(C)=O)cc1-c1ccccc1 [Compound 43, (E)-N-(6-(2-Isocyanovinyl)-(1,1-biphenyl)-3-yl)acetamide] | 32 mg/L (≈ 122 µM) | 26 mg/L (≈ 99.1 µM) | 22 mm | 18 mm | 18 mm | – | – |
| [C-]#[N+]/C=C/c1ccc(NC(C)=O)cc1/C=C/c1ccncc1 [Compound 44, N-(4-((E)-2-Isocyanovinyl)-3-((E)-2-(pyridin-4-yl)vinyl)phenyl)acetamide] | 35 mg/L (≈ 121 µM) | 46 mg/L (≈ 159 µM) | 28 mm | 28 mm | 30 mm | 26 mm | antibiotic activity in disc diffusion assays (in words) [7]: antibiotic activity against four of the strains |
